Experimental data taken from patent publication US20110086924A1, “Method of manufacturing an eutectic crystalline sugar alcohol” (B Food Science Co., Ltd., priority 2005, published 2011).

Experiment: Dissolving time in water (rate of dissolution)
Format: physicochemical
Details: 10 g in 100 ml water at 20° C.; particle size 150 μm or more but less than 350 μm
Description: Powder containing an eutectic crystalline sorbitol/maltitol prepared by the same way as that of Example 11 was classified into a part (crude particle part) having a particle size of 350 μm or more but less than 2 mm and a part (powdery product of 150 to 350 μm in particle size) having a particle size of 150 μm or more but less than 350 μm.
In addition, as a control, powdery sorbitol (SORBITOL FP, manufactured by NIKKEN FINE CHEMICALS CO., LTD.), powdery maltitol (AMARTY MR, manufactured by TOWA KASEI CO., LTD.), and a mixture of powdery sorbitol and powdery maltitol (1:1), which were classified so as to have a particle size of 150 μm or more but less than 350 μm (powdery product of 150 to 350 μm in particle size), were prepared.
Ten grams of each of them was poured into 100 ml of water at 20° C. and then subjected to the measurement of dissolving time. Consequently, the crude part of the powder containing an eutectic crystalline sorbitol/maltitol dissolved within 50 seconds, the powdery product of the powder containing an eutectic crystalline sorbitol/maltitol having a particle size of 150 to 350 μm dissolved within 18 seconds, the powdery sorbitol dissolved within 35 seconds, the powdery maltitol dissolved within 54 seconds, and the mixture of the powdery sorbitol and the powdery maltitol dissolved within 46 seconds.

SMILES	dissolving time [s]
OC[C@@H](O)[C@@H](O[C@H]1O[C@H](CO)[C@@H](O)[C@H](O)[C@H]1O)[C@H](O)[C@@H](O)CO [powdery maltitol, maltitol]	≤ 54
OC[C@@H](O)[C@@H](O)[C@H](O)[C@@H](O)CO [powdery sorbitol, sorbitol]	≤ 35
